# Earlier results in patent US20070281911A1, “Use of Adefovir or Tenofovir for Inhibiting Mmtv-Like Viruses Involved in Breast Cancer and Primary Biliary Cirrhosis” (GILEAD SCIENCES INC., priority 2004, published 2007).
# Target: MMTV RT enzyme (Mouse mammary tumor virus, UniProt P03365)
# Sequence (P03365 861-1437): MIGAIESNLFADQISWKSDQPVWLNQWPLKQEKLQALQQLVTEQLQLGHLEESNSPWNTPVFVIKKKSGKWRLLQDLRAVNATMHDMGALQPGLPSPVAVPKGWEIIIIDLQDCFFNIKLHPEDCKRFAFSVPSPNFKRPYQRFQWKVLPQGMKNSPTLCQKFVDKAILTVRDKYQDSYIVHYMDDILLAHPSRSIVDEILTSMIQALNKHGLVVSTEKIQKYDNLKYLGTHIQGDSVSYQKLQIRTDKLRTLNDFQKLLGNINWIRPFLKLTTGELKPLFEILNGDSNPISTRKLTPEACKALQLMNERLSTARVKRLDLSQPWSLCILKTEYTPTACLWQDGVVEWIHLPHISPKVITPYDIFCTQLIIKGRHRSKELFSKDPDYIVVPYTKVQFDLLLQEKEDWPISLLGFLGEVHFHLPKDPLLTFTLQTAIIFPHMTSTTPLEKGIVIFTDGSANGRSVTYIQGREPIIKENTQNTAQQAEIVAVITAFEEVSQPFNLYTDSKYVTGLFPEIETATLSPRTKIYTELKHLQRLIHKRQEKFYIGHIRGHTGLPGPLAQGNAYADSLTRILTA
compound,measurement,value
Cc1cn([C@H]2C[C@H](N=[N+]=[N-])[C@@H](COP(=O)(O)OP(=O)(O)OP(=O)(O)O)O2)c(=O)[nH]c1=O [AZTppp],direct inhibition of MMTV RT enzyme compared with HIV RT enzyme,as efficiently as the HIV RT enzyme
